# Results reported in ChEMBL document CHEMBL1201862, “PubChem BioAssay data set” (2004).
# Active and inactive are the calls of the source.
# Key:
# [1] = intracellular Trypanosoma cruzi inhibitors in host cells – cell-based, plate reader, cherry-pick samples, set 3, dose response (AID 651818); format: functional;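 note: compounds incubated with infected cells for about four days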
# [2] = Luminescence Cell-Based Dose Confirmation HTS to Identify Activators of 5'UTR Stem-Loop Driven Alpha-Synuclein mRNA Translation in H4 Neuroglioblastoma Cells. [Related pubchem assays: 1829 (Project Summary), 1814 (Primary HTS)]; format: functional
# [3] = Luminescence Cell-Based Dose Response HTS to Identify Activators of Luciferase Translation or Activity in H4 […] Cells. [Related pubchem assays: 1829 (Project Summary), 1814 (Primary HTS)]; format: functional
# H4 = experiment: Luminescence Cell-Based Dose Response HTS to Identify Activators of 5'UTR Stem-Loop Driven Prion Protein mRNA Translation in H4 Neuroglioblastoma Cells. [Related pubchem assays: 1829 (Project Summary), 1814 (Primary HTS)]; format: functional; conditions: Homo sapiens
# Cytochrome P450 3A4 [4] = target: T1, Cytochrome P450 3A4 (Homo sapiens, UniProt P08684); conditions: Potency
# [5] = target: T2, Microphthalmia-associated transcription factor (Homo sapiens, UniProt O75030); experiment: TRPM1 promoter luciferase signal decrease, dose response, MITF inhibitor project, cell-based, SK-MEL-5, cherry-picked, set 3 (AID 493073); format: functional
# T2 sequence (O75030 whole entry): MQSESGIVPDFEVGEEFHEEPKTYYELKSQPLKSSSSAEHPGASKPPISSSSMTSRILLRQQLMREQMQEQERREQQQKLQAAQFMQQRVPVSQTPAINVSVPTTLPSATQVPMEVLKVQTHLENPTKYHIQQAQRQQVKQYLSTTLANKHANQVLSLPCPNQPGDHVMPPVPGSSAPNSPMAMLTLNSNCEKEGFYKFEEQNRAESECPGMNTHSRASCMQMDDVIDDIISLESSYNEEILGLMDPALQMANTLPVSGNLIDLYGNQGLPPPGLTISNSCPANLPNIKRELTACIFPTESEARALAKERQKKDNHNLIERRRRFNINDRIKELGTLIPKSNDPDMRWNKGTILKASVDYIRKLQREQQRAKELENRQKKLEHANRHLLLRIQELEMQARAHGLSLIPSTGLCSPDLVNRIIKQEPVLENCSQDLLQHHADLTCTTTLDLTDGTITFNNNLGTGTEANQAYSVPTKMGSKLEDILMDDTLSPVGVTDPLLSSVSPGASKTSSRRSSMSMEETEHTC
# Cytochrome P450 2C19 = Cytochrome P450 2C19 (Homo sapiens, UniProt P33261); experiment: Cytochrome panel assay with activity outcomes. Panel member name: p450-cyp2c19 Compounds with AC50 equal or less than 10 uM are considered active; format: functional; conditions: read-out: AC50
# Cytochrome P450 3A4 [6] = target: T1, Cytochrome P450 3A4
# Cytochrome P450 2C9 = Cytochrome P450 2C9 (Homo sapiens, UniProt P11712)
# [7] = cytotoxicity in HEK-293T cells, dose response, cytotoxicity control for TCR NF-kB inhibitor project, luminescence, T-cell screen hits (AID 489026); format: functional, cell-based;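 note: cells exposed to compound about 14 hours before the viability readout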
# [8] = NIH-3T3 fibroblast cytotoxicity, dose response, cytotoxicity control, cell-based, fluorescence, Alamar Blue, secondary assay (AID 2327); format: functional;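 note: NIH-3T3 mouse fibroblasts cultured with fluconazole at 8 µg/mL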
# [9] = C. albicans growth with fluconazole, confirmation, fluorescence, retest (AID 2467); format: functional, cell-based
# cells [10] = format: functional, cell-based
# cells [11] = format: functional, cell-based; remark: listed apart in the source
# T1 sequence (P08684 whole entry): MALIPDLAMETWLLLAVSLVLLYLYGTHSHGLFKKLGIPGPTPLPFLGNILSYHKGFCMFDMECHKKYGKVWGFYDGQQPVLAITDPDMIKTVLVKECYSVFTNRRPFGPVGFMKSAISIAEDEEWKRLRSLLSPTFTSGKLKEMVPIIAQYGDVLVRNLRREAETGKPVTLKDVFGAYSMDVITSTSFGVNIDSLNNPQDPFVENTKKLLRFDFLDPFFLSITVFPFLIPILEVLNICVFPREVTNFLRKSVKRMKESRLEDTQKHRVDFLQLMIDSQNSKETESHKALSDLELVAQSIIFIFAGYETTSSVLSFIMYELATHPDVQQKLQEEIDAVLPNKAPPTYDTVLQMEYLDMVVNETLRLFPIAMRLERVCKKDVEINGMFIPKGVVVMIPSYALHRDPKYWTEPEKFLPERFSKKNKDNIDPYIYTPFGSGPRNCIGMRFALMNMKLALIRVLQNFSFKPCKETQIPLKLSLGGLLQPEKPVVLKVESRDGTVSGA
# Chain of Cytochrome P450 2C19 (P33261 whole entry): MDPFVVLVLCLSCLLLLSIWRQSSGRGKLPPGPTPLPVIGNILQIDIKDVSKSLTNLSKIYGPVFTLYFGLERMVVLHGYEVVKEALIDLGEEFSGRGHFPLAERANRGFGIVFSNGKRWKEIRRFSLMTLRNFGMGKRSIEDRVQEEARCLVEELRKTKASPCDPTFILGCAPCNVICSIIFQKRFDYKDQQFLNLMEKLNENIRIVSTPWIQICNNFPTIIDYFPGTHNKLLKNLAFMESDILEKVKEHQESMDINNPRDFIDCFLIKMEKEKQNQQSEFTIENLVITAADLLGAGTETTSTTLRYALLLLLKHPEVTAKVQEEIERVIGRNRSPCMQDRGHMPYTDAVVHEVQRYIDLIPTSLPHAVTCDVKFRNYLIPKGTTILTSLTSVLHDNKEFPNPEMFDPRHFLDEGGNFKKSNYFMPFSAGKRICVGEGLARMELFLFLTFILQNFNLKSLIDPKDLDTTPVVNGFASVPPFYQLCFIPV
# Chain of Cytochrome P450 2C9 (P11712 whole entry): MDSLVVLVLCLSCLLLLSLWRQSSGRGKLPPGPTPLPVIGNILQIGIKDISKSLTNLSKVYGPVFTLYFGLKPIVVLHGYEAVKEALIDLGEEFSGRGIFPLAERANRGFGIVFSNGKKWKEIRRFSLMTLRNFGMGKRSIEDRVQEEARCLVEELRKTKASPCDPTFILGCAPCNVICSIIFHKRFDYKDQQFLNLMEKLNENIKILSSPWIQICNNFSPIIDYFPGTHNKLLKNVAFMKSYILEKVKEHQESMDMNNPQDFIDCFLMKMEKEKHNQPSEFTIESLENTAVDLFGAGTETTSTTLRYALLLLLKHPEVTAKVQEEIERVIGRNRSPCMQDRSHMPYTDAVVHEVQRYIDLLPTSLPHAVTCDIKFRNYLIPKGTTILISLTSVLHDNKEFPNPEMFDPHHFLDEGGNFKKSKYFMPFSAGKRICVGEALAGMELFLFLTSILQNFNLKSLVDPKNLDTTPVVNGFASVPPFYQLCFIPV
smiles,measurement,setting,value
C[C@@H]1CN([C@@H](C)CO)C(=O)c2cccc(NC(=O)CCCCCC(=O)Nc3ccccc3N)c2O[C@H]1CN(C)CC1CC1,AC50,[1],4.62 µM (active)
C[C@@H]1CN([C@H](C)CO)C(=O)Cc2cc(NC(=O)CCC(F)(F)F)ccc2O[C@@H]1CN(C)Cc1ccc(Oc2ccccc2)cc1,AC50,[1],2.81 µM (active)
Cn1c(-c2ccc(-c3ccccc3)cc2)cnc1S,EC50,[2],7.14 µM (active)
same,EC50,[3],7.75 µM (active)
same,EC50,H4,15.6 µM (active)
C[C@@H]1CCCCO[C@@H](CN(C)Cc2ccc(C(F)(F)F)cc2)[C@@H](C)CN([C@H](C)CO)C(=O)c2cc(NC(=O)Nc3ccccc3)ccc2O1,AC50,[1],5.35 µM (active)
COC(=O)c1c(C)[nH]c(C(=O)OCc2ccc(F)cc2)c1C,EC50,[2],0.115 µM (active)
same,EC50,[3],23.8 µM (active)
same,EC50,H4,9.55 µM (active)
C[C@@H]1CN([C@H](C)CO)C(=O)Cc2cc(NC(=O)Nc3cccc4ccccc34)ccc2O[C@H]1CN(C)Cc1ccccc1,AC50,[1],6.25 µM (active)
N#Cc1nn(-c2c(Cl)cc(C(F)(F)F)cc2Cl)c(N)c1[S+]([O-])C(F)(F)F (stereo not given) [FIPRONIL],AC50,Cytochrome P450 3A4 [4],25.1 µM (inconclusive)
COc1ccc(NS(=O)(=O)c2cc(NC(=O)CNC(=O)c3cccc(OC)c3)ccc2C)cc1,AC50,[5],11 µM (active)
COc1cc(C(=O)OCC(=O)Nc2cc(C)on2)ccc1OCc1ccccc1Cl,EC50,[2],7.95 µM (active)
same,EC50,[3],4.54 µM (active)
same,EC50,H4,20.6 µM (active)
CCN(CC)CCCC(C)n1c(-c2ccccc2)nc2c(N3CCOCC3)nc(C)nc21 (stereo not given),AC50,Cytochrome P450 3A4 [4],15.8 µM (inconclusive)
S=c1ccss1 [DITHIOLETHIONE],AC50,Cytochrome P450 3A4 [4],10 µM (inconclusive)
COc1cccc(C(=O)Nc2ccc(N3CCN(C(=O)c4ccco4)CC3)cc2)c1,EC50,[2],> 120 µM (not active)
same,EC50,[3],8.46 µM (active)
same,EC50,H4,> 120 µM (not active)
C[C@@H]1CN([C@H](C)CO)C(=O)Cc2cc(NS(=O)(=O)c3ccc(F)cc3)ccc2O[C@H]1CN(C)Cc1ccc(Cl)c(Cl)c1,AC50,[1],2.26 µM (active)
Cc1c(Cl)cccc1NC(=O)C[C@H]1Sc2ccccc2NC1=O,AC50,Cytochrome P450 2C19,3.16 µM (inconclusive)
same,AC50,Cytochrome P450 3A4 [6],3.98 µM (inconclusive)
same,AC50,Cytochrome P450 2C9,inconclusive
COC(=O)c1cccc(C23CC4(C2)[C@H](CN(Cc2ccc(C(F)(F)F)cc2)[C@@H]4c2ccccc2)C3c2ccc(Cl)nc2)c1 (stereo not given in full),AC50,Cytochrome P450 3A4 [4],3.98 µM (inconclusive)
O=C(Nc1ccccc1)O[C@@H]1C[C@H]2CCC(=O)N3CC[C@@H](C1)[C@@H]23,EC50,[2],0.39 µM (active)
same,EC50,[3],40.9 µM (active)
same,EC50,H4,53.9 µM (active)
CCOC(=O)N1CCN(C(=O)CNCc2cccs2)CC1.O=C(O)C(=O)O,AC50,Cytochrome P450 2C9,inconclusive
C[C@@H]1CCCCO[C@@H](CN(C)C(=O)Nc2ccc(C(F)(F)F)cc2)[C@@H](C)CN([C@H](C)CO)C(=O)c2cc(NC(=O)Nc3ccc4c(c3)OCO4)ccc2O1,AC50,[1],4.09 µM (active)
COC1C=CO[C@@]2(C)Oc3c(C)c(O)c4c(O)c(c5c(nc6cc(C)ccn65)c4c3C2=O)NC(=O)/C(C)=C\C=CC(C)C(O)[C@@H](C)C(O)C(C)[C@@H](OC(C)=O)C1C (stereo not given in full),AC50,Cytochrome P450 3A4 [4],7.94 µM (inconclusive)
CCN1C(=O)C(O)(C2COC(C)(C)CC2=O)c2ccccc21 (stereo not given),AC50,Cytochrome P450 2C19,25.1 µM (inconclusive)
same,AC50,Cytochrome P450 2C9,inconclusive
Cc1nc(Sc2nnnn2C)c2c3c(sc2n1)CCC3,IC50,[7],> 80 µM (inactive)
same,AC50,[5],4.98 µM (active)
C[C@@H]1CCCCO[C@@H](CN(C)C(=O)c2ccccc2)[C@@H](C)CN([C@H](C)CO)C(=O)c2cc(NC(=O)Nc3ccc(C(F)(F)F)cc3)ccc2O1,AC50,[1],6.48 µM (active)
C#CCCCCCCCCCCCC(O)CC(O)COC(C)=O (stereo not given) [AVOCADYNE ACETATE],AC50,Cytochrome P450 3A4 [4],39.8 µM (inconclusive)
CCOc1c2ccc(C(=O)NC3CCCc4ccccc43)cc2nn1C (stereo not given),AC50,Cytochrome P450 2C9,inconclusive
CCCn1c(-c2ccc(F)cc2)nc2c(NCCN(C(C)C)C(C)C)nc(C)nc21,AC50,Cytochrome P450 3A4 [4],10 µM (inconclusive)
Cc1scc(C(=O)N/N=C/c2ccc([N+](=O)[O-])o2)c1C,EC50,[8],> 150 µM (inactive)
same,EC50,[9],1.48 µM (active)
same,AC50,[5],2.19 µM (active)
CN1C(=O)/C(=C(/C#N)c2nc3ccccc3[nH]2)c2ccccc21,AC50,Cytochrome P450 2C19,11.2 µM (inconclusive)
same,AC50,Cytochrome P450 2C9,inconclusive
Cc1cc(NC(=O)COC(=O)c2ccc(S(=O)(=O)N3CCCc4ccccc43)cc2)no1,IC50,[7],> 80 µM (inactive)
O=C(NCC1CCCO1)c1cc(-c2ccccc2)on1 (stereo not given),EC50,[2],11.6 µM (active)
same,EC50,[3],35.5 µM (active)
same,EC50,cells [10],17.2 µM (active)
same,EC50,H4,> 120 µM (not active)
same,EC50,cells [11],> 350 µM (not active)
